Common to all, as to format: functional
Test [1] deals with Mus musculus. Nature of the test: Estrogenic activity in albino ICI mouse assessed as uterus weight at 100 ug, sc qd for 3 days (reference value: 28 +/- 2 mg).
Test [2] concerns Mus musculus. Briefly: Potentiation of stilbestrol-induced estrogenic activity in albino ICI mouse assessed as uterus weight at 0.1 ug, sc qd for 3 days (reference value: 28 +/- 2 mg).
Test [3] deals with Mus musculus. Nature of the test: Estrogenic activity in albino ICI mouse assessed as body […] ratio at 100 ug, sc qd for 3 days (reference value: 232.2 +/- 10.4).
In test [4] the test system is Mus musculus. Briefly: Potentiation of stilbestrol-induced estrogenic activity in albino ICI mouse assessed as body weight at 0.1 ug, sc qd for 3 days (reference value: 12.1 +/- 0.7 gram).
Test [5] concerns Mus musculus. Briefly: Potentiation of stilbestrol-induced estrogenic activity in albino ICI mouse assessed as body weight at 100 ug, sc qd for 3 days (reference value: 12.1 +/- 0.7 gram).
For test [6], the system named is Mus musculus. Briefly: Potentiation of stilbestrol-induced estrogenic activity in albino ICI mouse assessed as body […] ratio at 100 ug, sc qd for 3 days (reference value: 232.2 +/- 10.4).
Test [7] relates to Mus musculus. Nature of the test: Potentiation of stilbestrol-induced estrogenic activity in albino ICI mouse assessed as body […] ratio at 0.1 ug, sc qd for 3 days (reference value: 232.2 +/- 10.4).
Test [8] relates to Mus musculus. Nature of the test: Estrogenic activity in albino ICI mouse assessed as body […] ratio at 0.1 ug, sc qd for 3 days (reference value: 232.2 +/- 10.4).
The test system of test [9] is Mus musculus. Briefly: Estrogenic activity in albino ICI mouse assessed as body weight at 100 ug, sc qd for 3 days (reference value: 12.1 +/- 0.7 gram).
Test [10] deals with Mus musculus. Briefly: Potentiation of stilbestrol-induced estrogenic activity in albino ICI mouse assessed as uterus weight at 100 ug, sc qd for 3 days (reference value: 28 +/- 2 mg).
Test [11] relates to Mus musculus. Briefly: Estrogenic activity in albino ICI mouse assessed as uterus weight at 0.1 ug, sc qd for 3 days (reference value: 28 +/- 2 mg).
For test [12], the system named is Mus musculus. Nature of the test: Estrogenic activity in albino ICI mouse assessed as body weight at 0.1 ug, sc qd for 3 days (reference value: 12.1 +/- 0.7 gram).

With `O=C1CCC2(CC1)Cc1ccccc1C2=O`, the Activity in test [1] is 28.3 mg; in test [2], 145 mg; in test [4], 15.2 g; in test [5], 14.1 g; in test [9], 13.3 g; in test [10], 192.3 mg. Further, the Activity was 35.5 mg in test [11] and 14.1 g in test [12]. The Ratio in test [3] worked out at 212.7; in test [6], 1366.9; in [7] it was 957.1; in [8], 252.

Regarding `CC/C(=C(/CC)c1ccc(O)cc1)c1ccc(O)cc1` [DIETHYLSTILBESTROL], in [8], the Ratio was 882. Moreover, the Activity in test [11] is 148 mg; in test [12], 16.8 g.

The record behind these values is ChEMBL document CHEMBL3271972, “Potentiation of the estrogenic activity of stilbestrol by spiro (cyclohexane-1,2'-indan)-1',4-dione” (1976).
